The values that follow come from patent publication US10028957B2, “Depot formulations” (DURECT CORPORATION, priority 2007, dated 2018).

This data set can be described thus: Solvent capacity experiments (solvent added until single phase persists one week). It is filed as physicochemical. The note with it: fixed PLGA/SAIB ratio, room temperature, weight percent of total final weight.
Setting [1] is: Example 7, PLGA 4700 Da, 65/35, hexanediol initiated.
The mark [2] stands for this setting: Example 8, PLGA 6600 Da, 65/35, dodecanol initiated.

Take `OCc1ccccc1` [BA, benzyl alcohol]: the “amount of solvent needed for a single phase solution that remained single phase for one week” value came out at 26.44 wt % under setting [1] and 19.70 wt % under setting [2].
For `C[S+](C)[O-]` [DMSO, dimethylsulfoxide] the same measures were 42.64 wt % and 31.22 wt %.
